Laboratory results published in patent EP1222242B1, “CLEANING AGENTS WHICH CONTAIN SURFACTANTS AND ENZYME INHIBITORS” (Henkel Kommanditgesellschaft auf Aktien, priority 1999, dated 2001).
Entries after “also recorded” stand apart in the source; their conditions may differ. Where a SMILES comes first, the peptide text is derived from it. The star is where a group is joined. Cbz = O=C(OCc1ccccc1)*

Experiments:
Trypsin = biological target: T1, Trypsin (Bos taurus, UniProt P00760); assay: Trypsin enzyme activity test (BAPNA substrate, absorbance at 405 nm); assay type: biochemical, Rind; settings: for Hemmwirkung (Minderung der Trypsin-Aktivität): 25 °C; for Hemmung von Trypsin: result in words over the tested concentration range
T1 construct: aus der vom Pankreas gebildeten Vorstufe Trypsinogen durch Abspaltung eines Hexapeptids entsteht; purchased Sigma; host or cells: bovine pancreas (Rinderpankreas)
T1 sequence (P00760 24-246): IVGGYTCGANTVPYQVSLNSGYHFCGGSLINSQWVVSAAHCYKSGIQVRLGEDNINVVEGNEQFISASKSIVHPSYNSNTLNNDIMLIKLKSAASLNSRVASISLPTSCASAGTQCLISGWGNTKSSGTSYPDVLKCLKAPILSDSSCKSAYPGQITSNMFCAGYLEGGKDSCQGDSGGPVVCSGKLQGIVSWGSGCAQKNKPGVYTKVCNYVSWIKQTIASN
From the text: (§1) Da die hauteigenen, am Desmosomenabbau beteiligten Proteasen nicht in ausreichender Menge zur Verfügung standen, dienten die Serin-Proteasen Trypsin und Chymotrypsin (Sigma) aus Rinderpankreas als Modellenzym, um die Hemmwirkung des erfindungsgemäß verwendeten Inhibitors N-CBZ-Gly-Pro-Phe-Pro-Leu, zu testen. Als Vergleich wurde auch das als t-PA-Inhibitor (tissue-type plasminogen activator) bekannte t-AMCHA [trans-4(Aminomethyl)-cyclohexancarbonsäure] getestet.
Auch der Nachweis der Trypsin-Enzymaktivität erfolgt mit einer Modifikation analog zu den Angaben im Sigma Quality Control Test Procedure-Datenblatt für Trypsin. Anstelle von Aprotinin (Reagens F) wurden hier die erfindungsgemäßen Inhibitoren eingesetzt. Hierfür wurde eine Konzentrationsreihe der Inhibitoren in Reagens E angesetzt. Die Enzymaktivität wurde durch Umsetzung des Substrates Nα-Benzoyl-DL-Arginin-p-Nitroanilin (BAPNA) zu Nα-Benzoyl-DL-Arginin und p-Nitroanilin spektrophotometrisch bestimmt. Die Absorption des proteolytisch abgespaltenen p-Nitroanilins wird bei 405 nm gemessen.
(§2) Die Reaktionskinetiken wurden je 5 Minuten bei 25 °C detektiert, wobei der lineare Anstieg der Absorption (A) pro Zeiteinheit (t) ein Maß für die Aktivität des Enzyms (ΔA/Δt) ist. Die Aktivität des Enzyms in Abwesenheit eines Proteinase-Inhibitors, (ΔA1/Δt1 ), wurde auf 100% gesetzt. Unter analogen Bedingungen wurden die Aktivitäten in Gegenwart eines Inhibitors (ΔA2/Δt2) bestimmt. Die Hemmwirkung oder Minderung der Enzymaktivität entspricht dann: 100% - (ΔA2/Δt2 )/( ΔA1/Δt1)%.

Chymotrypsin = biological target: T2, Chymotrypsin (Bos taurus, UniProt P00766); assay: Chymotrypsin enzyme activity test (BTEE substrate, absorbance at 256 nm); assay type: biochemical, Rind; settings: for Hemmung von Chymotrypsin: result in words over the tested concentration range
T2 construct: Chymotrypsin entsteht im Pankreas aus inaktiven Vorstufen, sogenannten Zymogenen, durch Einwirkung von Trypsin; purchased Sigma; host or cells: bovine pancreas (Rinderpankreas)
From the text: as §1
Der Nachweis der Chymotrypsin-Enzymaktivität erfolgt mit einer Modifikation analog zu den Angaben im Sigma Quality Control Test Procedure-Datenblatt für Chymotrypsin. Bei Ansätzen ohne Inhibitor wurden 1,42 mL Reagens A (80 mM Tris/HCl-Puffer, pH = 7,8; 25°C) zum Testansatz zugegeben. Bei Ansätzen mit Inhibitor wurden 1,32 mL Reagens A zum Testansatz zugegeben sowie 0,1 mL einer Lösung des entsprechenden Inhibitors in Reagens A (Konzentrationsreihe). Die Enzymaktivität wurde durch Umsetzung des Substrates N-Benzoyl-L-Tyrosinethylester (BTEE) zu N-Benzoyl-L-Tyrosin und Ethanol spektrophotometrisch bestimmt. Die Absorption des proteolytisch abgespaltenen N-Benzoyl-L-Tyrosins wird bei 256 nm gemessen.
as §2

[1] = system: Desquamation des Stratum corneum; assay: Desquamation test on human skin biopsies (detergent-induced corneocyte shedding, corneocyte count); assay type: cell-based; settings: for Desquamation der Humanhaut (Korneozyten-Abschuppung): result in words over the tested concentration range
From the text: Aus frischen Humanhautexplantaten (aus Mammareduktion) wurden 8mm^2-große Hautstücke ausgestanzt und mit einer Mischung aus Detergentien (Na-Dodecylsulfat, N,N-Dimethyldodecylaminoxid) in Abwesenheit und in Gegenwart der Inhibitoren behandelt. Unter dem Einfluß der Detergentien wird eine verstärkte Abschuppung (Desquamation) der Homschicht (Stratum corneum) künstlich induziert, also die Ausbildung trockener Haut im Versuch nachgeahmt. Die Anzahl abgeschuppter Hornzellen (Korneozyten) wurde unter dem Mikroskop in einer Schilling-Zählkammer bestimmt. Eine Verringerung der Korneozytenzahl weist auf eine hemmende Wirkung der getesteten potentiellen Inhibitoren hin.
Die Inhibitoren wurden in den entsprechenden Konzentrationen (vgl. Tabellen der Beispiele 7-12) im Inkubationspuffer angesetzt. Dieser bestand aus 0,1 M TRIS-HCl-Puffer (pH 8) mit 0,1 Gew.% Na-Azid und den Detergenzien Na-Dodecylsulfat (0,2 mM) und N,N-Dimethyldodecylaminoxid (8 mM) sowie EDTA (5 mM). Diese Inkubationspufferlösungen mit variierender Konzentration des Inhibitors werden nachfolgend als Testlösungen bezeichnet.
Es wurden zwei Arten von Blindkontrollen durchgeführt, eine Positiv- und eine Negativkontrolle. Für die sogenannte Positivkontrolle wurde nur der Inkubationspuffer verwendet, d. h. ohne Zusatz der Inhibitoren. Für die sogenannte Negativkontrolle wurde eine 5 mM Lösung von EDTA in TRIS-HCl-Puffer eingesetzt, d. h. ohne Zusatz der Detergentien.
Pro Reaktionsansatz wurden 0,5 mL der jeweiligen Testlösung oder des für die Blindkontrollen verwendeten Puffergemisches in verschließbaren Reaktionsgefäßen vorgelegt. Alle Ansätze wurden in vierfacher Ausfertigung durchgeführt, um die Reproduzierbarkeit der Ergebnisse zu gewährleisten.
Die Humanhaut wurde nach der Explantation in einer trockenen, sterilen Petrischale auf Kühlakkus transportiert. Nach Entfernung des Unterhautfett- und des Bindegewebes wurden mit Hilfe von sterilen Stanzen 8 mm^2-große Hautstücke präpariert. Diese wurden 15-20 min in steriler, physiologischer NaCl (0,9 %) gewaschen, zu den Reaktionsansätzen gegeben (1 Hautstück/Reaktionsansatz) und 44 Stunden bei 37° C inkubiert.
Nach Beendigung der Inkubationsphase wurden die Reaktionsgefäße 30 Sekunden auf einem Vortex-Mixer geschüttelt, um noch lose anhaftende Komeozyten von den Hautstücken abzulösen. Die Hautstücke wurden entnommen und die verbleibende Dispersion wurde 8 Minuten bei 11.000U/min zentrifugiert, um die Korneozyten zu isolieren. Der detergenshaltige Überstand (0,4 mL) wurde verworfen und der Rückstand mit 0,4 ml Aqua dest. gewaschen. Nach nochmaligem Zentrifugieren wurde der Überstand (0.4 mL) wiederum verworfen, das verbleibende Zellpellet in 0,4 mL Aqua dest. aufgenommen und die abgelösten Korneozyten in einer Schillingzählkammer unter einem Lichtmikroskop ausgezählt.
Nachfolgende Tabellen geben eine Zusammenstellung über die Anzahl abgelöster Korneozyten: • nach Behandlung der Haut-Biopsien mit einem Detergentiengemisch in Abwesenheit der Inhibitoren (Positivkontrolle) • nach Behandlung der Haut-Biopsien mit einer Pufferlösung in Abwesenheit der Detergentien und Inhibitoren (Negativkontrolle) • nach Behandlung der Haut-Biopsien mit einem Detergentiengemisch, welches die Inhibitoren in variierender Konzentration enthält.

[2] = inhibitor concentration 0,01 % (w/v)
[3] = inhibitor concentration 0,001 % (w/v)
[4] = inhibitor concentration 0,01 % (w/v), 25 °C
[5] = inhibitor concentration 0,001 % (w/v), 25 °C
[6] = inhibitor 0,1 % (w/v), corneocyte count, positive control = 100 %, 44 h, 37° C

Borsäure
Hemmwirkung (Minderung der Trypsin-Aktivität) (Trypsin; [2]): Keine Hemmwirkung meßbar
Hemmwirkung (Minderung der Trypsin-Aktivität) (Trypsin; inhibitor concentration 0,1 % (w/v)): 6%
Hemmwirkung (Minderung der Trypsin-Aktivität) (Trypsin; inhibitor concentration 0,5 % (w/v)): 23%
Hemmwirkung (Minderung der Trypsin-Aktivität) (Trypsin; [3]): Keine Hemmwirkung meßbar
Hemmung von Trypsin (Trypsin): schwache Hemmung; also recorded: nur schwach
Hemmwirkung (Minderung der Chymotrypsin-Aktivität) (Chymotrypsin; [4]): keine Hemmwirkung meßbar
Hemmwirkung (Minderung der Chymotrypsin-Aktivität) (Chymotrypsin; inhibitor concentration 0,1 % (w/v), 25 °C): 23%
Hemmwirkung (Minderung der Chymotrypsin-Aktivität) (Chymotrypsin; [5]): keine Hemmwirkung meßbar
Hemmung von Chymotrypsin (Chymotrypsin): schwache Hemmung; also recorded: nur schwach
Desquamation an Humanhaut ex vivo ([1]; inhibitor 0,01 % (w/v), corneocyte count, positive control = 100 %, 44 h, 37° C): 86%
Desquamation an Humanhaut ex vivo [1, 6]: 50%
Desquamation an Humanhaut ex vivo ([1]; inhibitor 0,2 % (w/v), corneocyte count, positive control = 100 %, 44 h, 37° C): 47%
Reduktion der Abschuppung der Korneozyten ([1]; inhibitor 0,2 %, result in words): halbieren
Desquamation der Humanhaut (Korneozyten-Abschuppung) [1]: signifikant reduziert

CC(C)CC(NC(=O)C1CCCN1C(=O)C(Cc1ccccc1)NC(=O)C1CCCN1C(=O)CNC(=O)OCc1ccccc1)C(=O)O (stereo not drawn) [N-CBZ-GPFPL, N-CBZ-Gly-Pro-Phe-Pro-Leu] (Cbz-GPFPL-OH; configuration not given here)
Hemmwirkung (Minderung der Trypsin-Aktivität) (Trypsin; inhibitor concentration 0,03 % (w/v)): keine Hemmwirkung messbar
Hemmwirkung (Minderung der Trypsin-Aktivität) (Trypsin; inhibitor concentration 0,06 % (w/v)): -"-
Hemmwirkung (Minderung der Trypsin-Aktivität) (Trypsin; inhibitor concentration 0,33 % (w/v)): -"-
Hemmung von Trypsin (Trypsin): nicht beeinträchtigt
inhibition at 0.06 % (Chymotrypsin; 5 min, pH 7.8, inhibitor concentration 0,06 % (w/v), 25 °C, read-out: Hemmwirkung (Minderung der Chymotrypsin-Aktivität)): 7%
inhibition at 0.33 % (Chymotrypsin; 5 min, pH 7.8, inhibitor concentration 0,33 % (w/v), 25 °C, read-out: Hemmwirkung (Minderung der Chymotrypsin-Aktivität)): 27%
Hemmwirkung (Minderung der Chymotrypsin-Aktivität) (Chymotrypsin; inhibitor concentration 0,03 % (w/v), 25 °C): 2%
Hemmung von Chymotrypsin (Chymotrypsin): spezifische Hemmung
Desquamation an Humanhaut ex vivo [1, 6]: 93%
Desquamation an Humanhaut ex vivo ([1]; inhibitor 0,5 % (w/v), corneocyte count, positive control = 100 %, 44 h, 37° C): 51%
Reduktion der Abschuppung (Desquamation der Haut) ([1]; inhibitor 0,5 %, result in words): um die Hälfte reduziert
Desquamation der Humanhaut (Korneozyten-Abschuppung) [1]: signifikant reduziert

OB(O)c1ccccc1 [Phenylboronsäure]
Hemmwirkung (Minderung der Trypsin-Aktivität) (Trypsin; [2]): Keine Hemmung meßbar
Hemmwirkung (Minderung der Trypsin-Aktivität) (Trypsin; inhibitor concentration 0,05 % (w/v)): 5%
Hemmwirkung (Minderung der Trypsin-Aktivität) (Trypsin; [3]): Keine Hemmung meßbar
Hemmwirkung (Minderung der Trypsin-Aktivität) (Trypsin; inhibitor concentration 0,005 % (w/v)): Keine Hemmung meßbar
Hemmung von Trypsin (Trypsin): nur mäßig beeinträchtigt
Hemmwirkung (Minderung der Chymotrypsin-Aktivität) (Chymotrypsin; [4]): 9%
Hemmwirkung (Minderung der Chymotrypsin-Aktivität) (Chymotrypsin; inhibitor concentration 0,05 % (w/v), 25 °C): 45%
Hemmwirkung (Minderung der Chymotrypsin-Aktivität) (Chymotrypsin; [5]): keine Hemmung meßbar
Hemmung von Chymotrypsin (Chymotrypsin): deutliche, konzentrationsabhängige Hemmung
activity at 0.1 % ([1]; Homo sapiens, pH 8, inhibitor 0,1 % (w/v), corneocyte count, positive control = 100 %, 44 h, 37° C, read-out: Desquamation an Humanhaut ex vivo): 60%
activity at 0.05 % ([1]; Homo sapiens, pH 8, inhibitor 0,05 % (w/v), corneocyte count, positive control = 100 %, 44 h, 37° C, read-out: Desquamation an Humanhaut ex vivo): 89%
Reduktion der Abschuppung der Korneozyten ([1]; inhibitor 0,1 %, result in words): siginifikant reduzieren
Desquamation der Humanhaut (Korneozyten-Abschuppung) [1]: signifikant reduziert
